US9422521B2, “Differentiation of pluripotent stem cells with a kinase inhibitor or PGI2” (ES Cell International Pte Ltd., priority 2005, dated 2016)
Entries after “also recorded” stand apart in the source; their conditions may differ.

How the values were obtained:
hES cells [1] = assay: hES differentiation as embryoid bodies (EBs) in suspension culture, scoring of beating EBs; format: cell-based, human; details: for number of EBs with beating foci: 5 μM in END2-CM, added early (during or shortly after EB formation), day 12, vs END2-CM alone
Method: This method describes hES differentiation through the formation of embryoid bodies (EB) from hES cells grown on MEF. EBs can also be generated from hES grown in feeder free systems. Formed EBs were then cultured in respective media such as SF or END2-CM. […] Enzymatically passaged hES cells grown on feeder cells were washed once with PBS^+ and treated with Collagenase IV (1 mg/ml) for 3-4 min at 37° C. The Collagenase IV solution was replaced by DMEM and the cells were mechanically dissociated with a pipette tip. Cells were then harvested using a cell scraper and the cell suspension was transferred to a 50 ml tube (Falcon). Cell clumps were collected by gravity and the supernatant was aspirated. Cells were resuspended in fresh DMEM medium aiming to uniformly disperse the cell clumps in the suspension. An equal volume of the cell suspension was then transferred to ultra low attachment plates (Costar). […] Alternatively, cells can be seeded into plates under conditions supporting cell adherence to induce differentiation of hES attached to a surface. In suspension culture, EBs were formed in ultra low attachment plates in SF medium over night. After over night incubation SF medium was replace by fresh SF medium or END2-CM respectively for further differentiation. Subsequent medium changes were performed every 3-4 days. Usually, cells were cultured over a period of 12-13 days before the visual analysis of the proportion of beating EBs under a microscope was performed followed by cell collection for additional readouts. Multiple beating areas on single EBs were not counted separately. […] Cell harvest and analysis at time points other then 12-13 days after EB formation is indicated in the respective examples and figures of this embodiment. […] An average value per well was calculated and presented. hES differentiation in suspension culture: EBs were formed in ultra low attachment plates in SF medium over night. After over night incubation SF medium was replace by fresh SF medium or END2-CM. […] Subsequent medium changes were performed every 3-4 days. Usually, cells were cultured over a period of 12-13 days. […] Medium change was performed at day 3, 6 and 9 after EB formation.

hES cells [2] = assay: qRT-PCR of cardiac and lineage marker genes in differentiating EBs; format: cell-based, human
Method: RNA extraction: EBs at the end of the twelve day period or as indicated in the text were harvested. All EBs from 3 wells were pooled and washed once in PBS^−. Trizol (Invitrogen) was added before freezing the EBs at −80° C. to enhance cell lysis. Frozen samples were thawed and harshly mixed. Chloroform was added to the sample and incubated for 3 min at room temperature. The sample was centrifuged for 15 min at 13000 rpm at 4° C. and the aqueous phase collected. An equal volume of 70% ethanol was added before the sample was loaded onto an RNeasy mini column (Qiagen). The column was centrifuged for 15 sec at ≧8000 g. The rest of the purification steps were performed according to manufacturer's instructions. RNA was eluted in RNase-free water. 5 μg of the RNA sample were then treated with DNase (Invitrogen) in a volume of 50 μl. The mixture was incubated at room temperature for 30 min and heat inactivated for 10 min at 80° C. before cooling rapidly on ice.
Reverse transcriptase: 5 μg of total RNA was mixed with 2 μl of 3 μg/μl random primers (Invitrogen) in a final volume of 100 μl. 75 μl were reversed transcribed (BioLabs), the remaining 25 μl served as a negative control. Samples were incubated for 1 hour at 37° C. before the reaction was terminated for 5 min at 95° C.
Real-time PCR: The PCR reaction was performed on 100 ng of cDNA, with 15 μl of 2× IQ™ SYBR® Green Supermix (Biorad) in a final reaction volume of 30 μl. To minimize variations in the triplicates, a master mix was prepared containing all reaction components except cDNA. PCR was performed on an iCycler™ (Biorad), annealing at 58° C. for 30 sec, extension at 72° C. for 45 sec, 40 cycles in total. Relative expression values were obtained by normalizing CT values of the tested genes in comparison with CT values of the housekeeping gene α-Actin using the ΔΔ CT method (19). The samples were subjected to PCR amplification with human gene primers including: […]
The samples were subjected to PCR amplification with human gene primers including: […]
The samples were subjected to PCR amplification with human gene primers including MESP1 (sense primer: […]; antisense primer: […]).

hES cells [3] = assay: Quantification of cardiomyocytes by Cytospin and MF20 staining; format: cell-based, human
Method: (§1) To more accurately determine the number of cardiomyocytes in the differentiated cell population, EBs were collected, washed in PBS^− and incubated with 0.05% Trypsin for 5 min at 37° C. Cell clumps were triturated and incubated for another 5 min at 37° C. Trypsin activity was inactivated with serum containing media and cells were collected via centrifugation at 2500 rpm for 4 min at 4° C. The cell pellet was resuspended in PBS for cell count and cytospun onto glass slides at 500 rpm for 5 min at low acceleration using 1×10^5 cells. Cells were stained immediately (see previous example) and a cell count performed.
(§2) Readouts were performed on day 13: the percentage of beating EBs was defined, the average cell number per well was counted via a cytometer after EBs dissociation with trypsin, the percentage of cardiomyocytes was divined via cytospin followed by cardiomyocyte specific anti α-Myosin Heavy Chain stain (MF20 antibody), and RNA was harvest for qRT-PCR.

hES cells [4] = assay: Cell count per well after EB differentiation
Method: as §1, §2

[5] = test system: JNK and/or p42/p44 MAP kinase; details: cited from earlier work
hES cells [6] = assay: EB morphology, H&E staining on paraffin sections; format: cell-based, human
Method: Paraffin sections: Beating EBs were collected and fixed for 15 min in 10% formalin at room temperature. EBs were then embedded in 1.5% agarose and dehydrated through 70% to 100% ethanol with a last incubation in xylene. The agarose block was then embedded in paraffin. 5 μm thick sections were cut in ribbons, floated on a warm water bath of 45° C., mounted on slides, and left to air dry at 37° C. overnight.
For hES culture on human feeder cells, see Example 2. For Immunohistochemistry performed here, see example 3. H&E staining on Paraffin sections was performed at the BSF facility (Biopolis).

[7] = test system: mouse embryonic carcinoma cell line P19; details: cited from earlier work
hES cells [8] = assay: hES differentiation as embryoid bodies (EBs) in suspension culture, scoring of beating EBs; format: cell-based; details: hES maintained on human feeder (HF), 12 days; END2-CM only, or SB203580 at 5 μM in END2-CM
hES cells [9] = details: Vitamin C added to the END2-hES co-culture system; cited from earlier work
[10] = 0.2 μM and 2 μM in bSF, 12 days
[11] = Example 5, END2-CM alone, or SB203580 at 5 μM in END2-CM
[12] = inhibitor added day 6 onwards, END2-CM
[13] = high concentration (20 μM) in END2-CM
[14] = END2-CM supplemented with 0.1 mM Vitamin C, day 12

For `CC(=O)O` [AA, Acetic Acid], the “percentage of beating EBs on day 13” value (hES cells [1]; 0.5 μM in bSFS vs bSFS alone) was “about the same”, the “percentage of beating EBs on day 13” value (hES cells [1]; 5 μM in bSFS vs bSFS alone) was “slide increase” and the “relative expression of α-MHC” value (hES cells [2]; 0.5 μM in bSFS vs bSFS alone) was “about the same”. For the same compound, the “relative expression of α-MHC” value (hES cells [2]; 5 μM in bSFS vs bSFS alone) was “slide increase”, the “fold increase in relative α-MHC expression” value (hES cells [2]; AA at a 0.5 μM concentration in bSFS (second statement)) was “about 2 fold” and the proportion of cardiomyocytes (hES cells [3]; 0.5 μM or 5 μM AA in bSFS, day 13) was “slightly increased”. For the same compound, the “day 13 cell count per well of a 6-well plate” value (“day 13 cell count per well” below) (hES cells [4]; bSFS + 0.5 μM Acetic Acid (AA)) was 1.18 × 10^6 and the “day 13 cell count per well” value (hES cells [4]; bSFS + 5.0 μM AA) was 1.03 × 10^6.

With `CCCCC[C@H](O)/C=C/[C@@H]1[C@H]2C/C(=C/CCCC(=O)[O-])O[C@H]2C[C@H]1O.[Na+]` [PGI2, (5Z, 9α, 11α, 13E, 15S)-6,9-Epoxy-11,15-dihydroxyprosta-5,13-dien-1-oic acid Sodium salt] the “fold higher percentage of beating EBs” value (hES cells [1]; [10]) was 3 fold, the “EB beating levels and marker gene expression levels compared to END2-CM” value (hES cells [1]; bSF with PGI2 at 0.2 μM and 2 μM) was “equivalent or even higher” and the “fold higher relative expression of the cardiac marker α-MHC” value (hES cells [2]; [10]) was 2-3 fold.

In the case of `Oc1ccc(-c2nc(-c3ccncc3)c(-c3ccc(F)cc3)[nH]2)cc1` [SB202190], the “number of EBs with beating foci” value (hES cells [1]) is reported as “the same effect; also recorded: comparable cardiogenic effect”.

In the case of `C[S+]([O-])c1ccc(-c2nc(-c3ccc(F)cc3)c(-c3ccncc3)[nH]2)cc1` (centres unmarked) [SB203580, 4-(4-Fluorophenyl)-2-(4-methylsulfinylphenyl)-5-(4-pyridyl)1H-imidazole], the “inhibition of JNK and/or p42/p44 MAP kinase” value [5] is given as “does not inhibit”, the “number of EBs with beating foci” value (hES cells [1]) is given as “increased” and the beating (hES cells [1]; 15 μM or more in END2-CM) is given as “declined”. The “formation of beating foci at day 12” value (hES cells [1]; 20 μM in END2-CM) was “almost completely suppressed”, the beating (hES cells [1]; 25 μM in END2-CM) was “no beating detectable” and the “size of the contracting area and beating frequency of beating foci” value (hES cells [1]; END2-CM with SB203580) was “positive effect”. For the same compound, the “beating EBs at day 12” value (hES cells [1]; [11]) was 78%, the “beating foci on EBs” value (hES cells [1]; SF medium supplemented with 5 μM) was “beating foci were detected” and the “number of beating foci per EB at day 12” value (hES cells [1]; added during the first 3 days of differentiation) was “remarkable increase”. For the same compound, the “percentage of beating EBs” value (hES cells [1]; hES batches less responsive to END2-CM (below 50% beating), SB203580 in END2-CM) was “more than 60%”, the “number of beating foci” value (hES cells [1]; [12]) was “no effect” and the “number of beating foci” value (hES cells [1]; up to 10 μM in END2-CM, 12 days, vs non-supplemented END2-CM) was “increase”. The “expression of cardiac markers at day 12” value (hES cells [2]; 5 μM from the start in END2-CM vs END2-CM alone) was “increased expression”, the “Brachyury expression around day 4” value (hES cells [2]; 5 μM in END2-CM) was “strong upregulation” and the “expression of skeletal (Myf5), endoderm (Sox17) or neuroectoderm (Sox1) markers” value (hES cells [2]; 5 μM in END2-CM) was “did not induce expression”. For the same compound, the “expression of the cardiac markers Nkx2.5 and α-MHC at day 12” value (hES cells [2]; 5 μM in END2-CM) was “higher expression”, the Brachyury expression (hES cells [2]; 5 and 20 μM in END2-CM) was “upregulated” and the Sox1 expression (hES cells [2]; END2-CM supplemented with 25 μM) was “significantly expressed”. For the same compound, the “α-MHC expression at day 12” value (hES cells [2]; Example 7, 5 μM in END2-CM) was “increased”, the “expression of precardiac mesoderm (Nkx2.5) and cardiac marker genes” value (hES cells [2]; Example 7, 20 μM in END2-CM) was “reduced” and the Sox1 expression (hES cells [2]; SF medium, from 10 μM onwards) was “upregulated”. The Sox1 expression (hES cells [2]; [13]) was “strongly upregulated”, the “Sox17 expression at day 12” value (hES cells [2]; [13]) was “higher expressed” and the Mesp1 expression (hES cells [2]; higher concentration (20 μM) in END2-CM) was “comparable to EBs grown in SF medium”. For the same compound, the “expression of α-MHC” value (hES cells [2]; highest concentration (25 μM) in END2-CM) was “barely detectable”, the “expression of α-MHC at day 12” value (hES cells [2]; [12]) was “no effect” and the Mesp1 expression (hES cells [2]; low concentration (5 μM) in END2-CM) was “higher expressed”. For the same compound, the “expression of α-MHC” value (hES cells [2]; over 10 μM in END2-CM) was “declined”, the “morphology of EBs” value (hES cells [6]; higher concentrations in END2-CM, 12 days) was “more compact and do not form epithelial visceral endoderm” and the “appearance of neural progenitor population in EBs” value (hES cells [6]; higher doses (>5 μM-25 μM), END2 CM) was “morphological uniform neuroepithelial EBs with clear rosette structure formed”. The “neurite-like outgrowth of attached EBs” value (hES cells [6]; serum free condition + 10 μM, 12 days) was “high number of neurite-like outgrowth”, the “cardiomyocyte differentiation in P19” value [7] was “prevented cardiomyocyte differentiation” and the “percentage of beating EBs” value (hES cells [8]) was 60-87%. The percentage of cardiomyocytes (hES cells [3]; 5 μM in END2-CM, day 13) was “slightly elevated”, the proportion of cardiomyocytes (hES cells [3]; 5 μM in bSFS, day 13) was “almost tripled” and the “cardiomyocytes (MF-20 positive) in EBs at day 12” value (hES cells [3]; [11]) was 21.7%. For the same compound, the “day 13 cell count per well” value (hES cells [4]; CM + 5 μM SB203580) was 3.63 × 10^6 and the “total cell number at day 12” value (hES cells [4]; Example 5, END2-CM alone, or END2-CM supplemented with 5 μM SB203580) was 1.16×10^6 cells/well.

For `O=C1O[C@H]([C@@H](O)CO)C(O)=C1O` [Vitamin C], the “increase in the number of beating areas” value (hES cells [9]) is given as “up to 40%”, the “increase in the number of beating EBs” value (hES cells [1]; [14]) is given as “up to 20%” and the “expression of cardiac specific markers ANF or α-MHC” value (hES cells [2]; [14]) is given as “increased”.
